Experimental data reported in BindingDB's records for doi:10.1021/jm030115o (Johnson and Johnson Pharmaceutical Research and Development, 2003).

Test: Inhibition of Glycogen synthase kinase-3beta (GSK3-beta)

| SMILES | IC50 |
| --- | --- |
| O=C1NC(=O)C2=C1c1cn(c3ncccc13)CCOCCOCCOCCOCCOCCn1cc2c2cccnc21 [17,20,23,26,29-pentaoxa-4,12,14,32,34-pentaazahexacyclo[30.6.1.17,14.02,6.08,13.033,38]tetraconta-1(39),2(6),7(40),8,10,12,33,35,37-nonaene-3,5-dione] | 403 nM |
| O=C1NC(=O)C2=C1c1cn(c3ccccc13)CCOCCOCCOCCOCCOCCn1cc2c2ccccc21 [17,20,23,26,29-pentaoxa-4,14,32-triazahexacyclo[30.6.1.17,14.02,6.08,13.033,38]tetraconta-1(39),2(6),7(40),8,10,12,33,35,37-nonaene-3,5-dione] | 51 nM |
| O=C1NC(=O)C2=C1c1cn(c3ncccc13)CCOCCOCCOCCOCCn1cc2c2cccnc21 [17,20,23,26-tetraoxa-4,12,14,29,31-pentaazahexacyclo[27.6.1.17,14.02,6.08,13.030,35]heptatriaconta-1(36),2(6),7(37),8,10,12,30,32,34-nonaene-3,5-dione] | 48 nM |
| O=C1NC(=O)C2=C1c1cn(c3ccccc13)CCOCCOCCOCCOCCn1cc2c2ccccc21 [17,20,23,26-tetraoxa-4,14,29-triazahexacyclo[27.6.1.17,14.02,6.08,13.030,35]heptatriaconta-1(36),2(6),7(37),8,10,12,30,32,34-nonaene-3,5-dione] | 26 nM |
| O=C1NC(=O)C2=C1c1cn(c3ncccc13)CCOCCOCCOCCn1cc2c2cccnc21 [17,20,23-trioxa-4,12,14,26,28-pentaazahexacyclo[24.6.1.17,14.02,6.08,13.027,32]tetratriaconta-1(33),2(6),7(34),8,10,12,27,29,31-nonaene-3,5-dione] | 34 nM |
| O=C1NC(=O)C2=C1c1cn(c3ncccc13)CCOCCOCCn1cc2c2cccnc21 [17,20-dioxa-4,12,14,23,25-pentaazahexacyclo[21.6.1.17,14.02,6.08,13.024,29]hentriaconta-1(30),2(6),7(31),8,10,12,24,26,28-nonaene-3,5-dione] | 620 nM |
| O=C1NC(=O)C2=C1c1cn(c3ccccc13)CCOCCOCCn1cc2c2cccnc21 [17,20-dioxa-4,12,14,23-tetraazahexacyclo[21.6.1.17,14.02,6.08,13.024,29]hentriaconta-1(30),2(6),7(31),8,10,12,24,26,28-nonaene-3,5-dione] | 138 nM |
| O=C1NC(=O)C2=C1c1cn(c3ccccc13)CCOCCOCCn1cc2c2ccccc21 [17,20-dioxa-4,14,23-triazahexacyclo[21.6.1.17,14.02,6.08,13.024,29]hentriaconta-1(30),2(6),7(31),8,10,12,24,26,28-nonaene-3,5-dione] | 136 nM |
